Results from the NIST ThermoML archive (doi:10.1021/je700344f).
Numbers after ± are expanded uncertainties.

Assay: xn = mol fraction of the nth substance listed
Settings: 101 kPa, Liquid

CN(C)c1ccccc1 [N,N-dimethylaniline] + C1COCCO1
mass density (283.15 K, x2 = 0.3099): 990.33 ± 2.4 kg/m3 | viscosity (283.15 K, x2 = 0.3099): 1.68 ± 0.12 mPa·s | mass density (283.15 K, x2 = 0.4246): 998.33 ± 2.2 kg/m3 | viscosity (283.15 K, x2 = 0.4246): 1.66 ± 0.12 mPa·s | mass density (283.15 K, x2 = 0.5302): 1005.32 ± 2.3 kg/m3 | viscosity (283.15 K, x2 = 0.5302): 1.637 ± 0.12 mPa·s | mass density (283.15 K, x2 = 0.6278): 1013.42 ± 2.5 kg/m3 | viscosity (283.15 K, x2 = 0.6278): 1.629 ± 0.12 mPa·s | mass density (283.15 K, x2 = 0.7182): 1019.31 ± 2.7 kg/m3 | viscosity (283.15 K, x2 = 0.7182): 1.607 ± 0.11 mPa·s | mass density (283.15 K, x2 = 0.7749): 1025.23 ± 2.8 kg/m3 | viscosity (283.15 K, x2 = 0.7749): 1.606 ± 0.11 mPa·s | mass density (283.15 K, x2 = 0.8551): 1034.31 ± 3 kg/m3 | viscosity (283.15 K, x2 = 0.8551): 1.602 ± 0.11 mPa·s | mass density (283.15 K, x2 = 0.9081): 1040.92 ± 3.2 kg/m3 | viscosity (283.15 K, x2 = 0.9081): 1.591 ± 0.11 mPa·s | mass density (283.15 K, x2 = 0.9538): 1043.01 ± 3.3 kg/m3 | viscosity (283.15 K, x2 = 0.9538): 1.588 ± 0.11 mPa·s | mass density (293.15 K, x2 = 0.3099): 980.73 ± 2.7 kg/m3 | viscosity (293.15 K, x2 = 0.3099): 1.424 ± 0.1 mPa·s | mass density (293.15 K, x2 = 0.4246): 989.12 ± 2.5 kg/m3 | viscosity (293.15 K, x2 = 0.4246): 1.428 ± 0.1 mPa·s | mass density (293.15 K, x2 = 0.5302): 995.81 ± 2.3 kg/m3 | viscosity (293.15 K, x2 = 0.5302): 1.37 ± 0.098 mPa·s | mass density (293.15 K, x2 = 0.6278): 1003.54 ± 2.3 kg/m3 | viscosity (293.15 K, x2 = 0.6278): 1.362 ± 0.097 mPa·s | mass density (293.15 K, x2 = 0.7182): 1011.33 ± 2.5 kg/m3 | viscosity (293.15 K, x2 = 0.7182): 1.345 ± 0.096 mPa·s | mass density (293.15 K, x2 = 0.7749): 1016.79 ± 2.6 kg/m3 | viscosity (293.15 K, x2 = 0.7749): 1.339 ± 0.096 mPa·s | mass density (293.15 K, x2 = 0.8551): 1023.65 ± 2.8 kg/m3 | viscosity (293.15 K, x2 = 0.8551): 1.326 ± 0.095 mPa·s | mass density (293.15 K, x2 = 0.9081): 1031.25 ± 3 kg/m3 | viscosity (293.15 K, x2 = 0.9081): 1.33 ± 0.095 mPa·s | mass density (293.15 K, x2 = 0.9538): 1035.34 ± 3.1 kg/m3 | viscosity (293.15 K, x2 = 0.9538): 1.327 ± 0.095 mPa·s | mass density (303.15 K, x2 = 0.3099): 973.4 ± 2.8 kg/m3 | viscosity (303.15 K, x2 = 0.3099): 1.199 ± 0.087 mPa·s | mass density (303.15 K, x2 = 0.4246): 980.12 ± 2.7 kg/m3 | viscosity (303.15 K, x2 = 0.4246): 1.182 ± 0.086 mPa·s | mass density (303.15 K, x2 = 0.5302): 986.56 ± 2.5 kg/m3 | viscosity (303.15 K, x2 = 0.5302): 1.166 ± 0.085 mPa·s | mass density (303.15 K, x2 = 0.6278): 993.63 ± 2.3 kg/m3 | viscosity (303.15 K, x2 = 0.6278): 1.157 ± 0.084 mPa·s | mass density (303.15 K, x2 = 0.7182): 1001.04 ± 2.2 kg/m3 | viscosity (303.15 K, x2 = 0.7182): 1.142 ± 0.083 mPa·s | mass density (303.15 K, x2 = 0.7749): 1005.98 ± 2.3 kg/m3 | viscosity (303.15 K, x2 = 0.7749): 1.136 ± 0.083 mPa·s | mass density (303.15 K, x2 = 0.8551): 1014.07 ± 2.5 kg/m3 | viscosity (303.15 K, x2 = 0.8551): 1.131 ± 0.083 mPa·s | mass density (303.15 K, x2 = 0.9081): 1019.01 ± 2.7 kg/m3 | viscosity (303.15 K, x2 = 0.9081): 1.124 ± 0.082 mPa·s | mass density (303.15 K, x2 = 0.9538): 1024.82 ± 2.8 kg/m3 | viscosity (303.15 K, x2 = 0.9538): 1.122 ± 0.082 mPa·s | mass density (313.15 K, x2 = 0.3099): 963.88 ± 3.1 kg/m3 | viscosity (313.15 K, x2 = 0.3099): 1.029 ± 0.076 mPa·s | mass density (313.15 K, x2 = 0.4246): 970.47 ± 2.9 kg/m3 | viscosity (313.15 K, x2 = 0.4246): 1.025 ± 0.076 mPa·s | mass density (313.15 K, x2 = 0.5302): 977.93 ± 2.7 kg/m3 | viscosity (313.15 K, x2 = 0.5302): 1.01 ± 0.075 mPa·s | mass density (313.15 K, x2 = 0.6278): 984.4 ± 2.6 kg/m3 | viscosity (313.15 K, x2 = 0.6278): 1.002 ± 0.074 mPa·s | mass density (313.15 K, x2 = 0.7182): 991.21 ± 2.4 kg/m3 | viscosity (313.15 K, x2 = 0.7182): 0.987 ± 0.073 mPa·s | mass density (313.15 K, x2 = 0.7749): 995.85 ± 2.3 kg/m3 | viscosity (313.15 K, x2 = 0.7749): 0.984 ± 0.073 mPa·s | mass density (313.15 K, x2 = 0.8551): 1003.65 ± 2.3 kg/m3 | viscosity (313.15 K, x2 = 0.8551): 0.976 ± 0.073 mPa·s | mass density (313.15 K, x2 = 0.9081): 1008.93 ± 2.4 kg/m3 | viscosity (313.15 K, x2 = 0.9081): 0.965 ± 0.072 mPa·s | mass density (313.15 K, x2 = 0.9538): 1014.66 ± 2.5 kg/m3 | viscosity (313.15 K, x2 = 0.9538): 0.968 ± 0.072 mPa·s | mass density (323.15 K, x2 = 0.3099): 955.01 ± 3.3 kg/m3 | viscosity (323.15 K, x2 = 0.3099): 0.912 ± 0.068 mPa·s | mass density (323.15 K, x2 = 0.4246): 961.76 ± 3.1 kg/m3 | viscosity (323.15 K, x2 = 0.4246): 0.901 ± 0.068 mPa·s | mass density (323.15 K, x2 = 0.5302): 968.52 ± 3 kg/m3 | viscosity (323.15 K, x2 = 0.5302): 0.886 ± 0.067 mPa·s | mass density (323.15 K, x2 = 0.6278): 974.24 ± 2.8 kg/m3 | viscosity (323.15 K, x2 = 0.6278): 0.879 ± 0.066 mPa·s | mass density (323.15 K, x2 = 0.7182): 981.34 ± 2.6 kg/m3 | viscosity (323.15 K, x2 = 0.7182): 0.872 ± 0.066 mPa·s | mass density (323.15 K, x2 = 0.7749): 985.13 ± 2.5 kg/m3 | viscosity (323.15 K, x2 = 0.7749): 0.861 ± 0.065 mPa·s | mass density (323.15 K, x2 = 0.8551): 993.17 ± 2.4 kg/m3 | viscosity (323.15 K, x2 = 0.8551): 0.857 ± 0.065 mPa·s | mass density (323.15 K, x2 = 0.9081): 997.95 ± 2.2 kg/m3 | viscosity (323.15 K, x2 = 0.9081): 0.848 ± 0.064 mPa·s | mass density (323.15 K, x2 = 0.9538): 1002.4 ± 2.2 kg/m3 | viscosity (323.15 K, x2 = 0.9538): 0.845 ± 0.064 mPa·s | mass density (333.15 K, x2 = 0.3099): 945.84 ± 3.5 kg/m3 | viscosity (333.15 K, x2 = 0.3099): 0.811 ± 0.062 mPa·s | mass density (333.15 K, x2 = 0.4246): 953.15 ± 3.3 kg/m3 | viscosity (333.15 K, x2 = 0.4246): 0.798 ± 0.061 mPa·s | mass density (333.15 K, x2 = 0.5302): 958.78 ± 3.2 kg/m3 | viscosity (333.15 K, x2 = 0.5302): 0.786 ± 0.06 mPa·s | mass density (333.15 K, x2 = 0.6278): 964.37 ± 3.1 kg/m3 | viscosity (333.15 K, x2 = 0.6278): 0.779 ± 0.06 mPa·s | mass density (333.15 K, x2 = 0.7182): 971.52 ± 2.9 kg/m3 | viscosity (333.15 K, x2 = 0.7182): 0.771 ± 0.059 mPa·s | mass density (333.15 K, x2 = 0.7749): 974.75 ± 2.8 kg/m3 | viscosity (333.15 K, x2 = 0.7749): 0.763 ± 0.059 mPa·s | mass density (333.15 K, x2 = 0.8551): 983.43 ± 2.6 kg/m3 | viscosity (333.15 K, x2 = 0.8551): 0.761 ± 0.059 mPa·s | mass density (333.15 K, x2 = 0.9081): 986.57 ± 2.5 kg/m3 | viscosity (333.15 K, x2 = 0.9081): 0.75 ± 0.058 mPa·s | mass density (333.15 K, x2 = 0.9538): 991.84 ± 2.4 kg/m3 | viscosity (333.15 K, x2 = 0.9538): 0.751 ± 0.058 mPa·s | mass density (343.15 K, x2 = 0.3099): 936.89 ± 3.7 kg/m3 | viscosity (343.15 K, x2 = 0.3099): 0.725 ± 0.056 mPa·s | mass density (343.15 K, x2 = 0.4246): 944.04 ± 3.6 kg/m3 | viscosity (343.15 K, x2 = 0.4246): 0.716 ± 0.056 mPa·s | mass density (343.15 K, x2 = 0.5302): 948.37 ± 3.5 kg/m3 | viscosity (343.15 K, x2 = 0.5302): 0.71 ± 0.055 mPa·s | mass density (343.15 K, x2 = 0.6278): 954.22 ± 3.3 kg/m3 | viscosity (343.15 K, x2 = 0.6278): 0.711 ± 0.055 mPa·s | mass density (343.15 K, x2 = 0.7182): 962.15 ± 3.1 kg/m3 | viscosity (343.15 K, x2 = 0.7182): 0.689 ± 0.054 mPa·s | mass density (343.15 K, x2 = 0.7749): 964.44 ± 3.1 kg/m3 | viscosity (343.15 K, x2 = 0.7749): 0.683 ± 0.054 mPa·s | mass density (343.15 K, x2 = 0.8551): 971.97 ± 2.9 kg/m3 | viscosity (343.15 K, x2 = 0.8551): 0.678 ± 0.053 mPa·s | mass density (343.15 K, x2 = 0.9081): 977.83 ± 2.7 kg/m3 | viscosity (343.15 K, x2 = 0.9081): 0.674 ± 0.053 mPa·s | mass density (343.15 K, x2 = 0.9538): 980.14 ± 2.7 kg/m3 | viscosity (343.15 K, x2 = 0.9538): 0.67 ± 0.053 mPa·s
